Here are results for 12 molecules from ChEMBL document CHEMBL4265897, “Discovery of benzothiazole amides as potent antimycobacterial agents” (Bioorg Med Chem Lett, 2018).

Structures are written as SMILES. ≈ marks a conversion by molar mass, not a printed value. A value given as a limit tells only on which side of the number the result lay.

A word on the MIC: it is the lowest concentration that inhibits growth of the organism.

Assay [1] concerns Mycobacteroides abscessus. The assay can be described thus: Antimycobacterial activity against Mycobacterium abscessus 21 by CLSI method. The class given is functional.
For assay [2], the system named is Mycolicibacterium peregrinum. Put plainly: Antimycobacterial activity against Mycobacterium peregrinum ATCC 700686 by CLSI method. The class given is functional.
In assay [3] the test system is Mycolicibacterium fortuitum. The assay can be described thus: Antimycobacterial activity against Mycobacterium fortuitum 41 by CLSI method. The format is functional.
The subject of assay [4] is Mycobacteroides abscessus. Put plainly: Antimycobacterial activity against Mycobacterium abscessus 79 by CLSI method. The class given is functional.
The subject of assay [5] is Mycobacteroides abscessus. The assay can be described thus: Antimycobacterial activity against Mycobacterium abscessus 1 by CLSI method. The format is functional.
A further assay deals with Mycobacteroides chelonae. The assay can be described thus: Antimycobacterial activity against Mycobacterium chelonae 93 by CLSI method. The class given is functional.
The next assay concerns Mycobacterium avium. The assay can be described thus: Antimycobacterial activity against Mycobacterium avium 101 by CLSI method. The format is functional.
For assay [6], the system named is Mycobacteroides abscessus. The assay can be described thus: Antimycobacterial activity against Mycobacterium massiliense 119 by CLSI method. The format is functional, Mycobacterium abscessus subsp. massiliense.
The test system of assay [7] is Mycobacterium tuberculosis. Put plainly: Antimycobacterial activity against Mycobacterium tuberculosis H37Rv MC2 6206 by CLSI method. The class given is functional.
Assay [8] relates to Mycobacterium intracellulare. Put plainly: Antimycobacterial activity against Mycobacterium intracellulare 1956 by CLSI method. The class given is functional.
Assay [9] relates to Mycobacteroides abscessus. Put plainly: Antimycobacterial activity against Mycobacterium abscessus 103 by CLSI method. The format is functional.
Assay [10] relates to Mycobacteroides abscessus. Put plainly: Antimycobacterial activity against Mycobacterium abscessus ATCC 19977 by CLSI method. The format is functional.

With `CC1CC(C(=O)Nc2nc3ccc(F)cc3s2)CC(C)(C)C1` (stereo not drawn), the MIC in assay [1] is 0.5 µg/mL (≈ 1.56 µM); in assay [2], 0.06 µg/mL (≈ 0.187 µM); in [3], 0.25 µg/mL (≈ 0.78 µM); in assay [4], 0.5 µg/mL (≈ 1.56 µM); in assay [5], 0.5 µg/mL (≈ 1.56 µM); with Mycobacteroides chelonae, 0.25 µg/mL (≈ 0.78 µM). In addition, the MIC amounted to 8 µg/mL (≈ 25 µM) against Mycobacterium avium; 0.25 µg/mL (≈ 0.78 µM) in assay [6]; 4 µg/mL (≈ 12.5 µM) in assay [7]; 8 µg/mL (≈ 25 µM) in assay [8]; 0.25 µg/mL (≈ 0.78 µM) in assay [9].

Take `CC1CC(C(=O)Nc2nc3cc(C(F)(F)F)ccc3s2)CC(C)(C)C1` (stereo not drawn): the MIC in assay [1] is 0.25 µg/mL (≈ 0.675 µM); in [2], 0.12 µg/mL (≈ 0.324 µM); in [3] it was 0.25 µg/mL (≈ 0.675 µM); in assay [4], 0.25 µg/mL (≈ 0.675 µM); in the assay with Mycobacteroides chelonae, 0.25 µg/mL (≈ 0.675 µM); with Mycobacterium avium it was > 64 µg/mL. In addition, the MIC in assay [6] was 0.5 µg/mL (≈ 1.35 µM); in assay [7], ≤ 0.12 µg/mL; in [8], > 64 µg/mL; in assay [9], 0.5 µg/mL (≈ 1.35 µM).

Turning to `CC1CCC(C(=O)Nc2nc3ccc(C(F)(F)F)cc3s2)CC1` (stereo not drawn), the MIC in assay [10] is 64 µg/mL (≈ 187 µM); in the assay on Mycobacterium avium it was > 64 µg/mL; in assay [8] it was > 64 µg/mL.

Take `CC12CCCC(C(=O)Nc3nc4c(F)c(F)c(F)cc4s3)(CCC1)C2`: the MIC is 0.12 µg/mL (≈ 0.326 µM) in assay [1]; 0.06 µg/mL (≈ 0.163 µM) in assay [2]; 0.5 µg/mL (≈ 1.36 µM) in assay [3]; 0.12 µg/mL (≈ 0.326 µM) in assay [4]; 0.25 µg/mL (≈ 0.679 µM) in assay [5]; 0.12 µg/mL (≈ 0.326 µM) with Mycobacteroides chelonae. The MIC in the assay on Mycobacterium avium was > 8 µg/mL; in [6] it was 0.12 µg/mL (≈ 0.326 µM); in assay [7], ≤ 0.12 µg/mL; in [8], 8 µg/mL (≈ 21.7 µM); in [9] it was 0.12 µg/mL (≈ 0.326 µM).

As to `CC1CC(C(=O)Nc2nc3ccc(N(C)C)cc3s2)CC(C)(C)C1` (stereo not drawn), the MIC was 16 µg/mL (≈ 46.3 µM) in [1]; 2 µg/mL (≈ 5.79 µM) in assay [2]; 8 µg/mL (≈ 23.2 µM) in assay [3]; 8 µg/mL (≈ 23.2 µM) in assay [4]; 32 µg/mL (≈ 92.6 µM) in [10]; > 64 µg/mL in [5]. In addition, the MIC is 2 µg/mL (≈ 5.79 µM) with Mycobacteroides chelonae; > 64 µg/mL in the assay on Mycobacterium avium; 4 µg/mL (≈ 11.6 µM) in assay [6]; > 64 µg/mL in assay [8]; 64 µg/mL (≈ 185 µM) in [9].

Regarding `CC1CC(C(=O)Nc2nc3cccc(F)c3s2)CC(C)(C)C1` (stereo not drawn), the MIC worked out at 0.25 µg/mL (≈ 0.78 µM) in assay [1]; 0.06 µg/mL (≈ 0.187 µM) in [2]; 0.12 µg/mL (≈ 0.374 µM) in assay [3]; 0.25 µg/mL (≈ 0.78 µM) in assay [4]; 0.5 µg/mL (≈ 1.56 µM) in assay [5]; 0.5 µg/mL (≈ 1.56 µM) in the assay with Mycobacteroides chelonae. Further, the MIC was found to be 8 µg/mL (≈ 25 µM) in the assay on Mycobacterium avium; 0.25 µg/mL (≈ 0.78 µM) in assay [6]; 1 µg/mL (≈ 3.12 µM) in assay [7]; 16 µg/mL (≈ 49.9 µM) in assay [8]; 0.5 µg/mL (≈ 1.56 µM) in assay [9].

Turning to `CC1CC(C(=O)Nc2nc3cc(Br)ccc3s2)CC(C)(C)C1` (stereo not drawn), the MIC was 16 µg/mL (≈ 42 µM) in assay [1]; 4 µg/mL (≈ 10.5 µM) in assay [2]; 16 µg/mL (≈ 42 µM) in assay [3]; 16 µg/mL (≈ 42 µM) in assay [4]; 32 µg/mL (≈ 83.9 µM) in assay [10]; 32 µg/mL (≈ 83.9 µM) in [5]. For the same molecule, the MIC is 16 µg/mL (≈ 42 µM) against Mycobacteroides chelonae; > 64 µg/mL against Mycobacterium avium; 64 µg/mL (≈ 168 µM) in assay [6]; > 64 µg/mL in [8]; 16 µg/mL (≈ 42 µM) in assay [9].

As to `CC12CCCC(C(=O)Nc3nc4ccc(Cl)cc4s3)(CCC1)C2`, the MIC in assay [1] was 0.12 µg/mL (≈ 0.344 µM); in assay [2] it was 0.12 µg/mL (≈ 0.344 µM); in [3], 0.25 µg/mL (≈ 0.717 µM); in [4], 0.12 µg/mL (≈ 0.344 µM); in [5], 0.25 µg/mL (≈ 0.717 µM); in the assay with Mycobacteroides chelonae, 0.25 µg/mL (≈ 0.717 µM). Moreover, the MIC is 8 µg/mL (≈ 22.9 µM) with Mycobacterium avium; 0.12 µg/mL (≈ 0.344 µM) in assay [6]; 0.5 µg/mL (≈ 1.43 µM) in [7]; 4 µg/mL (≈ 11.5 µM) in assay [8]; 0.12 µg/mL (≈ 0.344 µM) in assay [9].

Regarding `CC1(C)CCC(C(=O)Nc2nc3ccc(C(F)(F)F)cc3s2)CC1`, the MIC was > 64 µg/mL in assay [10], 64 µg/mL (≈ 180 µM) with Mycobacterium avium and 64 µg/mL (≈ 180 µM) in assay [8].

Take `O=C(Nc1nc2ccc(OC(F)(F)F)cc2s1)C1CCCCCC1`: the MIC in assay [1] is > 64 µg/mL; in [2] it was > 64 µg/mL; in assay [3], > 64 µg/mL; in assay [4], > 64 µg/mL; in assay [5], > 64 µg/mL; against Mycobacteroides chelonae, 32 µg/mL (≈ 89.3 µM). Moreover, the minimal inhibitory concentration (MIC) against Mycobacterium avium was > 64 µg/mL; in [6], > 64 µg/mL; in assay [7] it was 64 µg/mL (≈ 179 µM); in assay [8], > 64 µg/mL; in assay [9], > 64 µg/mL.

With `O=C(Nc1nc2ccc(C(F)(F)F)cc2s1)C1CCCC2(CC2)C1` (stereo not drawn), the MIC in assay [1] is 2 µg/mL (≈ 5.64 µM); in assay [2], 1 µg/mL (≈ 2.82 µM); in [3], > 64 µg/mL; in [4], 1 µg/mL (≈ 2.82 µM); in assay [10], 4 µg/mL (≈ 11.3 µM); in assay [5], 8 µg/mL (≈ 22.6 µM). The minimum inhibitory concentration (MIC) against Mycobacteroides chelonae is 1 µg/mL (≈ 2.82 µM); against Mycobacterium avium it was > 64 µg/mL; in [6], 2 µg/mL (≈ 5.64 µM); in [8], > 64 µg/mL.

On to `CC1CC(C(=O)Nc2nc3cc(Cl)cc(Cl)c3s2)CC(C)(C)C1` (stereo not drawn), for which the MIC in assay [1] stood at 0.25 µg/mL (≈ 0.673 µM); in [2] it was 0.12 µg/mL (≈ 0.323 µM); in assay [3] it was 0.25 µg/mL (≈ 0.673 µM); in assay [4], 0.12 µg/mL (≈ 0.323 µM); in the assay with Mycobacteroides chelonae it was 0.12 µg/mL (≈ 0.323 µM); against Mycobacterium avium, 8 µg/mL (≈ 21.5 µM). The MIC in assay [6] came to 0.25 µg/mL (≈ 0.673 µM); in assay [7], 1 µg/mL (≈ 2.69 µM); in assay [8] it was 16 µg/mL (≈ 43.1 µM); in assay [9], 0.5 µg/mL (≈ 1.35 µM).
